# From patent US4599424A, “5-substituted thiadiazole ureas and their use as herbicides” (priority 1979, dated 1986)
# Test system: a variety of crops and weed species
# Assay: Pre- and post-emergence herbicide tests, overall assessment of TABLES III-VI
# Format: in vivo
# Conditions: from data of TABLES III-VI
# Method: All crop and weed species were planted individually in 3" plastic pots containing potting soil. Four seeds each of corn, cotton, and snapbeans were seeded to a depth equal to the diameter of the seed. All other species were surface seeded and sprinkled with screened soil in an amount sufficient to cover the seed. Immediately after planting, all pots were watered by sub-irrigation in greenhouse trays. Pots for the pre-emergence phase were seeded one day before treatment.
# Planting dates for the post-emergence phase were varied so that all seedlings would reach the desired stage of development simultaneously. The proper stage of seedling development for treatment in the post-emergence phase is as follows:
# Compounds were tested at rates of application equivalent to 8 lbs. of actual compound per acre in a spray volume of 38 gallons per acre. Spray hood constants required to deliver the above volume are as follows:
# Two weeks after treatment, pre- and post-emergence injury or control was visually rated, and the results were as shown in the following tables. Pre-emergence data are provided in TABLE III and post-emergence data are provided in TABLE IV, for compounds having the formula illustrated in TABLE I. Correspondingly, pre-emergence and post-emergence data, respectively, are set forth in TABLES V AND VI, for compounds having the formula illustrated in TABLE II.
# Typical of such compounds are: 1, 2, 5, 26, 36, and 37.
row,Compound,herbicidal effectiveness and selectivity (in words)
1,"CNC(=O)Nc1nnc(C(F)(F)F)s1 [Example 1, 1-Methyl-3-[5-Trifluoromethyl-2-(1,3,4-Thiadiazolyl)]Urea]",extremely effective
2,"CN(C)C(=O)Nc1nnc(C(F)(F)F)s1 [Example 2, 1,1-Dimethyl-3-[5-Trifluoromethyl-2-(1,3,4-Thiadiazolyl)]Urea]",extremely effective
3,"CSc1nnc(N(C)C(=O)N(C)C)s1 [Example 5, 1,1,3-trimethyl-3-[5-methylthio-2-(1,3,4-thiadiazolyl)]urea]",extremely effective
4,CCNC(=O)Nc1nnc(C(F)(F)F)s1 [Example 9],more selective
5,C=CCNC(=O)Nc1nnc(C(F)(F)F)s1 [Example 12],"control post-emergence growth, while have little effect in regard to pre-emergence"
6,O=C(Nc1ccc(Cl)cc1)Nc1nnc(C(F)(F)F)s1 [Example 15],more selective
7,O=C(Nc1ccc(Cl)c(Cl)c1)Nc1nnc(C(F)(F)F)s1 [Example 16],more selective
8,Cc1nnc(NC(=O)N(C)C)s1 [Example 19],converse of this relationship
9,CCc1nnc(NC(=O)N(C)C)s1 [Example 20],more selective
